Laboratory results reported in article PMC6332220, “Synthesis, Characterization and Biological Evaluation of Some Quinoxaline Derivatives: A Promising and Potent New Class of Antitumor and Antimicrobial Agents” (Molecules, 2015).
Values after ≈ are worked out from the molar mass of the structure shown.

How the values were obtained:
Bacillus subtilis = test: Disk diffusion, Bacillus subtilis; assay type: cell-based; conditions: Gram positive, 8.0 mm disks, 10 μL
Procedure: (§1) The disk diffusion method was used for determination of the antimicrobial activity using ampicillin, gentamicin and amphotericin B as reference drugs. The results were recorded for each compounds as the average diameter as inhibition zones (IZ) of bacterial or fungal growth around the discs in mm as shown in Table 2.
(§2) Antimicrobial activities were carried out against highly pathogenic strains; three strains of Gram positive bacteria (Bacillus subtilis, Staphylococcus aureus and Streptococcus faecalis), four strains of Gram negative bacteria (Escherichia coli, Neisseria gonorrhoeae, Pseudomonas aeruginosa and Salmonella typhimurium) and three fungi strains (Aspergillus flavus, Aspergillus fumigatus and Candida albicans) isolated from primary agar plates. Antimicrobial activity of the tested samples was determined using a modified Kriby-Bauer disk diffusion method. Briefly, 100 µL of the test bacteria/fungi were grown in 10 mL of fresh media until they reached a count approximately 10^8 cells/mL for bacteria or 10^5 cells/mL for fungi. 100 µL of microbial suspension was spread onto agar plates corresponding to the broth in which they were maintained. The inoculated plates of bacterial strains were incubated at 35–37 °C for 24–48 h, while the inoculated plates of fungal strains such as A. flavus and A. fumigatus were incubated at 25 °C for 48 h and yeast as C. albicans was incubated at 30 °C for 24–48 h.
(§3) The agar disk diffusion (qualitative) method was used in this investigation for determination of the preliminary antibacterial and antifungal activities. The agar used was Mueller-Hinton agar plates that are rigorously tested for composition and pH. Further the depth of the agar in the plate is a factor to be considered in the disk diffusion method.
(§4) Reference drugs: ampicillin was used as a standard antibacterial drug for Gram positive bacteria, gentamicin as a standard antibacterial drug for Gram negative bacteria and amphotericin B as antifungal standard drug.
(§5) Bacterial and fungal strains were spread onto the surface of the agar plates using sterile cotton swabs. For evaluation of antibacterial activities, blank paper disks (Schleicher & Schuell, Alicante, Spain) with a diameter of 8.0 mm were saturated with 10 μL of tested concentration of the stock solutions. Disks were dried and then placed onto inoculated agar plates. The plates of bacterial strains were reincubated at 35–37 °C for 24–48 h, while the plates of fungal strains such as A. flavus and A. fumigatus were reincubated at 25 °C for 48 h and yeast as C. albicans was reincubated at 30 °C for 24–48 h as mentioned above. […] For an accurate analysis, tests were run in triplicate for each strain to avoid any error as described in Table 2.

Streptococcus faecalis = test: Disk diffusion, Streptococcus faecalis; assay type: cell-based; conditions: Gram positive, 8.0 mm disks, 10 μL
Procedure: as §1, §2, §3, §4, §5

Staphylococcus aureus = test: Disk diffusion, Staphylococcus aureus; assay type: cell-based; conditions: Gram positive, 8.0 mm disks, 10 μL
Procedure: as §1, §2, §3, §4, §5

Neisseria gonorrhoeae = test: Disk diffusion, Neisseria gonorrhoeae; assay type: cell-based; conditions: Gram negative, 8.0 mm disks, 10 μL
Procedure: as §1, §2, §3, §4, §5

Salmonella typhimurium = test: Disk diffusion, Salmonella typhimurium; assay type: cell-based; conditions: Gram negative, 8.0 mm disks, 10 μL
Procedure: as §1, §2, §3, §4, §5

Pseudomonas aeruginosa = test: Disk diffusion, Pseudomonas aeruginosa; assay type: cell-based; conditions: Gram negative, 8.0 mm disks, 10 μL
Procedure: as §1, §2, §3, §4, §5

Escherichia coli = test: Disk diffusion, Escherichia coli; assay type: cell-based; conditions: Gram negative, 8.0 mm disks, 10 μL
Procedure: as §1, §2, §3, §4, §5

Aspergillus fumigatus = test: Disk diffusion, Aspergillus fumigatus; assay type: cell-based; conditions: Fungi, 8.0 mm disks, 10 μL
Procedure: as §1, §2, §3, §4, §5
(§6) Disk diffusion method for filamentous fungi testing by using approved standard method (M02-A11) developed by the CLSI for evaluating the susceptibilities of filamentous fungi to antifungal agents. Disk diffusion method for yeasts developed by using approved standard method (M44-A2) by the CLSI [44]. Agar-based methods such as disk diffusion can be good alternatives because they are simpler and faster than broth-based methods.

SF-268 (CNS cancer) = test: In vitro cytotoxicity, SRB cell growth assay, SF-268; conditions: Homo sapiens, SF-268, 48 h, read-out: IC50 (μg/mL) SF-268
Procedure: (§7) The in vitro cytotoxic activity of the newly synthesized compounds against human breast cell line (MCF7), non-small cell lung cancer NCIH460, CNS cancer SF-268 and WI 38 (normal fibroblast cells) were evaluated using doxorubicin as the reference drug according to the method reported by Skehan et al..
(§8) The newly synthesized compounds were evaluated in vitro against three human cancer cell lines; which are MCF-7 (breast adenocarcinoma), NCI-H460 (non-small cell lung cancer) and SF-268 (CNS cancer), and WI 38 (normal fibroblast cells) were used in this study. MCF-7 was obtained from the European Collection of Cell Cultures (ECACC, Salisbury, UK) but NCI-H460, SF-268 and WI 38 were kindly provided by the National Cancer Institute (NCI, Cairo, Egypt). They grow as monolayer and routinely maintained RPMI-1640 medium supplemented with 5% heat inactivated fetal bovine serum (FBS), 2 mM glutamine and antibiotics (penicillin 100 U/mL, streptomycin 100 µg/mL), at 37 °C in a humidified atmosphere containing 5% CO2. Exponentially growing cells were obtained by plating 1.5 × 10^5 cells/mL for MCF-7 and SF-268, and 0.75 × 10^4 cells/mL for NCI-H460 followed by 24 h of incubation. The effect of the vehicle solvent (DMSO) on the growth of these cell lines was evaluated in all experiments by exposing untreated control cells to the maximum concentration (0.5%) of DMSO used in each assay.
(§9) The effect of compounds on the in vitro growth of human tumor cell lines were evaluated according to the procedure adopted by the National Cancer Institute ([…]) in the “In vitro Anticancer Drug Discovery Screen” that uses the protein-binding dye sulforhodamine B (SRB) to assess cell growth. In the assay protocol, all cells were incubated at 37 °C under humidified atmosphere containing 5% CO2. Briefly, exponentially cells growing in 96-well plates were then exposed for 48 h to five serial concentrations of each compound, starting from a maximum concentration of 150 μg/mL. Following this exposure period adherent cells were fixed, washed and stained. The bound stain was solubilized and the absorbance was measured at 492 nm in a plate reader (Bio-Tek Instruments Inc., Power wave XS, Winston, NC, USA). For each test compound and cell line, a dose response curve was obtained and the inhibitory concentration of 50% (IC50), corresponding to the concentration of the compounds that inhibited 50% of the net cell growth was calculated as described elsewhere. Doxorubicin was used as a positive control and tested in the same manner.

Aspergillus flavus = test: Disk diffusion, Aspergillus flavus; assay type: cell-based; conditions: Fungi, 8.0 mm disks, 10 μL
Procedure: as §1, §2, §3, §4, §5, §6

[1] = test system: WI 38 (normal fibroblast cells); test: In vitro cytotoxicity, SRB cell growth assay, normal cells WI 38; assay type: cell-based, human; conditions: 48 h exposure, non-cytotoxic = IC50 >100 μg/mL; for IC50: Homo sapiens, WI-38, 48 h
Procedure: as §7, §8, §9

Candida albicans = test: Disk diffusion, Candida albicans; assay type: cell-based; conditions: Fungi, 8.0 mm disks, 10 μL
Procedure: as §1, §2, §3, §4, §5, §6

[2] = test system: MCF-7 (breast adenocarcinoma); test: In vitro cytotoxicity, SRB cell growth assay, MCF-7; conditions: Homo sapiens, MCF7, 48 h, read-out: IC50 (μg/mL) MCF-7
Procedure: as §7, §8, §9

[3] = test system: NCI-H460 (non-small cell lung cancer); test: In vitro cytotoxicity, SRB cell growth assay, NCI-H460; conditions: Homo sapiens, NCI-H460, 48 h, read-out: IC50 (μg/mL) NCI-H460
Procedure: as §7, §8, §9

SMILES	Inhibition Zone Diameter (IZ) (mm) Bacillus subtilis (Bacillus subtilis)	Inhibition Zone Diameter (IZ) (mm) Streptococcus faecalis (Streptococcus faecalis)	Inhibition Zone Diameter (IZ) (mm) Staphylococcus aureus (Staphylococcus aureus)	Inhibition Zone Diameter (IZ) (mm) Neisseria gonorrhoeae (Neisseria gonorrhoeae)	Inhibition Zone Diameter (IZ) (mm) Salmonella typhimurium (Salmonella typhimurium)	Inhibition Zone Diameter (IZ) (mm) Pseudomonas aeruginosa (Pseudomonas aeruginosa)	Inhibition Zone Diameter (IZ) (mm) Escherichia coli (Escherichia coli)	Inhibition Zone Diameter (IZ) (mm) Aspergillus fumigatus (Aspergillus fumigatus)	IC50 (SF-268 (CNS cancer))	Inhibition Zone Diameter (IZ) (mm) Aspergillus flavus (Aspergillus flavus)	IC50 [1]	Inhibition Zone Diameter (IZ) (mm) Candida albicans (Candida albicans)	IC50 [2]	IC50 [3]	melting point	IC50 (μg/mL) WI 38 [1]
CC1(C)S[C@@H]2[C@H](NC(=O)[C@H](N)c3ccccc3)C(=O)N2[C@H]1C(=O)O [Ampicillin, reference compound]	20 mm	19 mm	22 mm	–	–	–	–	–	–	–	–	–	–	–	–	–
CNC(C)C1CCC(N)C(OC2C(N)CC(N)C(OC3OCC(C)(O)C(NC)C3O)C2O)O1 (stereo not drawn) [Gentamicin, reference compound]	–	–	–	18 mm	23 mm	17 mm	20 mm	–	–	–	–	–	–	–	–	–
Cc1cc(C)n(-c2nc3ccc(Br)cc3nc2-n2nc(C)cc2C)n1 [Compound 15, 6-Bromo-2,3-bis(3,5-dimethyl-1H-pyrazol-1-yl)quinoxaline]	10 mm	9 mm	9 mm	9 mm	10 mm	9 mm	10 mm	R (R (IZ = 0 mm))	30.2 ± 2.04 µg/mL (≈ 76.1 µM)	R (R (IZ = 0 mm))	18.2 ± 4.03 µg/mL (≈ 45.7 µM)	R (R (IZ = 0 mm))	28.4 ± 5.8 µg/mL (≈ 71.5 µM)	22.7 ± 8.12 µg/mL (≈ 57.2 µM)	–	–
CC1=NN(c2nc3ccc(Br)cc3nc2N2N=C(C)CC2=O)C(=O)C1 [Compound 17, 6-Bromo-2,3-bis(3-methyl-1H-pyrazol-5(4H)-one)quinoxaline]	7 mm	10 mm	8 mm	6 mm	5 mm	8 mm	11 mm	R (R (IZ = 0 mm))	21.3 ± 2.12 µg/mL (≈ 53.2 µM)	R (R (IZ = 0 mm))	21.4 ± 2.02 µg/mL (≈ 53.3 µM)	R (R (IZ = 0 mm))	21.23 ± 0.14 µg/mL (≈ 52.9 µM)	15.81 ± 0.1 µg/mL (≈ 39.4 µM)	152 to 154 °C	–
NNc1nc2cc(Br)ccc2n2nnnc12 [Compound 7, 7-Bromo-4-hydrazinyltetrazolo[1,5-a]quinoxaline]	11 mm	11 mm	10 mm	10 mm	9 mm	10 mm	10 mm	R (R (IZ = 0 mm))	10.6 ± 2.83 µg/mL (≈ 38 µM)	R (R (IZ = 0 mm))	–	R (R (IZ = 0 mm))	26.4 ± 2.1 µg/mL (≈ 94.3 µM)	12.4 ± 3.01 µg/mL (≈ 44.3 µM)	237 to 239 °C	non-cytotoxic
C[C@@H]1[C@H](O)[C@@H](C)/C=C/C=C/C=C/C=C/C=C/C=C/C=C/[C@H](O[C@@H]2O[C@H](C)[C@@H](O)[C@H](N)[C@@H]2O)C[C@@H]2O[C@](O)(C[C@@H](O)C[C@@H](O)[C@H](O)CC[C@@H](O)C[C@@H](O)CC(=O)O[C@H]1C)C[C@H](O)[C@H]2C(=O)O [Amphotericin B, reference compound]	–	–	–	–	–	–	–	23 mm	–	17 mm	–	19 mm	–	–	–	–
Cc1c[nH]nc2c3n[nH]cc(C)n-3c3cc(Br)ccc3n1-2 [Compound 12, 7-Bromo-4,11-dimethyl-2,13-dihydrobis[1,2,4]triazino[4,3-a:3',4'-c]quinoxaline]	18 mm	18 mm	19 mm	R (R (IZ = 0 mm))	18 mm	20 mm	17 mm	R (R (IZ = 0 mm))	22.1 ± 2.81 µg/mL (≈ 64 µM)	R (R (IZ = 0 mm))	23 ± 8.2 µg/mL (≈ 66.5 µM)	R (R (IZ = 0 mm))	35.2 ± 4.18 µg/mL (≈ 102 µM)	34 ± 6.05 µg/mL (≈ 98.6 µM)	–	–
COc1cccc2c1C(=O)c1c(O)c3c(c(O)c1C2=O)C[C@@](O)(C(=O)CO)C[C@@H]3O[C@H]1C[C@H](N)[C@H](O)[C@H](C)O1 [Doxorubicin, reference compound]	–	–	–	–	–	–	–	–	0.09 ± 0.007 µg/mL (≈ 0.166 µM)	–	–	–	0.04 ± 0.008 µg/mL (≈ 0.0736 µM)	0.09 ± 0.008 µg/mL (≈ 0.166 µM)	–	non-cytotoxic
